Measured values from PubChem BioAssay (NCI).
Several values for one entry are separate records, joined by “and”; a condition that tells them apart may be missing. Equal values may be shown once.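 Protocol summary: plate cells (96-well), add compound at 5 concentrations, incubate 48 h, interpolate endpoints linearly. GI50 is the concentration that inhibits growth by half. TGI: concentration producing complete growth inhibition.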

Columns and labels:
Test in all cases: NCI-60 cell line screen, 48 h
MDA-MB-435 = system: MDA-MB-435
MDA-MB-231 breast = system: MDA-MB-231 breast
HOP-62 NSCLC = system: HOP-62 NSCLC
UACC-62 melanoma = system: UACC-62 melanoma
OVCAR-4 ovarian = system: OVCAR-4 ovarian
SK-OV-3 ovarian = system: SK-OV-3 ovarian
LOX IMVI melanoma = system: LOX IMVI melanoma
U251 CNS = system: U251 CNS
SF-295 CNS = system: SF-295 CNS
OVCAR-3 ovarian = system: OVCAR-3 ovarian

| Structure (SMILES) | GI50 (MDA-MB-435) | TGI (MDA-MB-435) | GI50 (MDA-MB-231 breast) | TGI (MDA-MB-231 breast) | GI50 (HOP-62 NSCLC) | TGI (HOP-62 NSCLC) | GI50 (UACC-62 melanoma) | TGI (UACC-62 melanoma) | GI50 (OVCAR-4 ovarian) | TGI (OVCAR-4 ovarian) [µM] | GI50 (SK-OV-3 ovarian) | TGI (SK-OV-3 ovarian) [µM] | GI50 (LOX IMVI melanoma) | TGI (LOX IMVI melanoma) | GI50 (U251 CNS) | TGI (U251 CNS) | GI50 (SF-295 CNS) | TGI (SF-295 CNS) | GI50 (OVCAR-3 ovarian) | TGI (OVCAR-3 ovarian) |
| --- | --- | --- | --- | --- | --- | --- | --- | --- | --- | --- | --- | --- | --- | --- | --- | --- | --- | --- | --- | --- |
| Cc1ccc2c(c1)C(C)Cc1c(Cl)ncnc1N2C (stereo not drawn) | 2.23 µM | 5.63 µM | 2.55 µM | 6.84 µM | 3.74 µM | 22.2 µM | 3.72 µM | 21.8 µM | 3.06 µM | > 100 | 3.75 µM | 31 | 1.8 µM | 3.78 µM | 4.43 µM | 67.9 µM | 3.12 µM | 25.2 µM | 2.26 µM | 5.4 µM |
| Nc1c([N+](=O)[O-])cc2c3c(cccc13)CC2 |  | > 100 µM |  | > 100 µM |  | > 100 µM |  | > 100 µM |  | > 100 |  | > 100 |  | > 100 µM |  | > 100 µM |  | > 100 µM |  | > 100 µM |
| Cc1ccc2nc(-c3ccccc3)c(N=O)n2c1 |  | > 100 µM |  | 73.1 µM |  | > 100 µM |  | 49.6 µM |  | > 100 |  | > 100 |  | > 100 µM |  | > 100 µM |  | > 100 µM |  | > 100 µM |
| O=C(O)c1cc(-c2ccncc2)nc2ccccc12 |  | > 100 µM |  | > 100 µM |  | > 100 µM |  | > 100 µM |  | > 100 |  | > 100 |  | > 100 µM |  | > 100 µM |  | > 100 µM |  | > 100 µM |
| CC1(O)CC(c2nc(-c3ccc4ccc(-c5ccccc5)nc4c3)c3c(N)nccn23)C1 (stereo not drawn) | 4.53 µM and 3.69 µM | 27.3 µM and > 10 µM | 6.97 µM and 5.12 µM | 38.1 µM and > 10 µM | 5.75 µM and 7.35 µM | 50.6 µM and > 10 µM | 10.8 µM and > 10 µM | 32.2 µM and > 10 µM | 7.5 µM and > 10 µM | > 95 | 10.4 µM and 9.84 µM | > 100 | 7.41 µM and 6.46 µM | 45.4 µM and > 10 µM | 13.4 µM and > 10 µM | 36.3 µM and > 10 µM | 12.5 µM and > 10 µM | 48.1 µM and > 10 µM | 15 µM and > 10 µM | 34.7 µM and > 10 µM |
| Nc1nc(N)c2c(n1)NC(c1ccc(F)cc1)C1CCc3ccccc3C1=N2 (stereo not drawn) | 2.84 µM | 11.6 µM | 5.8 µM | 19.8 µM | 6 µM | 19.8 µM | 3.76 µM | 17.7 µM | 3.98 µM | 18.2 | 11.1 µM | 23.3 | 3.98 µM | 16.1 µM | 4.29 µM | 16.9 µM | 1.71 µM | 6.18 µM | 4.15 µM | 16.1 µM |
| Oc1ccccc1CNCC12CC3CC(CC(C3)C1)C2 | 18.6 µM | 43.7 µM | 27.7 µM | > 100 µM | 28.8 µM | 84 µM | 17.8 µM | 38.7 µM | 48.8 µM | > 100 | 35.8 µM | > 100 | 20.6 µM | 76 µM | 20.7 µM | 49.3 µM | 19.3 µM | 42.2 µM | 57.5 µM | > 100 µM |
| COc1ccc(/C(=N\O)c2cc(C)c(OC)c(C)c2)cc1O | < 0.01 µM |  | 0.0438 µM | > 100 µM | 0.0215 µM | > 100 µM | < 0.01 µM | > 100 µM | 0.0279 µM | > 100 | 0.0166 µM | > 100 | 0.0189 µM | > 100 µM | < 0.01 µM | > 100 µM | < 0.01 µM | > 100 µM | < 0.01 µM | > 100 µM |
| COC(=O)CCC1CCC(c2cc(F)ccc2F)(S(=O)(=O)c2ccc(Cl)cc2)CC1 (stereo not drawn) | 88.5 µM | > 100 µM | > 100 µM | > 100 µM | > 100 µM | > 100 µM | 69.4 µM | > 100 µM | 45.5 µM | > 100 | > 100 µM | > 100 | 91.5 µM | > 100 µM | > 100 µM | > 100 µM | > 100 µM | > 100 µM | 83.7 µM | > 100 µM |
| Oc1ccccc1C=Nc1nc(SCc2ccccc2)nc2[nH]ncc12 | 35.8 µM | > 100 µM | 29.2 µM | > 100 µM | > 100 µM | > 100 µM | 28.1 µM | 73.7 µM | > 100 µM | > 100 | > 100 µM | > 100 | 56.3 µM | > 100 µM | 46.4 µM | > 100 µM | 52 µM | > 100 µM | 64.5 µM | > 100 µM |
| CCCCCCCCCCC(C(O)c1ccccc1)N1CCCCC1 (stereo not drawn) | 1.66 µM | 3.03 µM | 1.76 µM | 3.69 µM | 1.91 µM | 3.78 µM | 2.01 µM | 4.01 µM | 3.66 µM | 13.2 | 2.59 µM | 7.82 | 1.67 µM | 3.03 µM | 1.74 µM | 3.46 µM | 1.83 µM | 3.23 µM | 1.11 µM | 2.57 µM |
| O=Cc1ccccc1B(O)O |  | > 100 µM |  | > 100 µM |  | > 100 µM |  | > 100 µM |  | > 100 |  | > 100 |  | > 100 µM |  | > 100 µM |  | > 100 µM |  | > 100 µM |
| CCN1C(=O)N(c2ccccc2)C2NC(=S)N(/N=C/C=C/c3ccccc3)C21 (stereo not drawn) | 0.0314 µM | 0.216 µM | 0.715 µM | > 100 µM | 0.4 µM | > 100 µM | 0.197 µM | > 100 µM | 4.68 µM | > 100 | 0.421 µM | > 100 | 0.647 µM | > 100 µM | 0.44 µM | > 100 µM | 0.276 µM | > 100 µM | 0.263 µM |  |
| O=c1[nH]c(=O)c2cc(C3CC(O)C(CO)O3)ccc2[nH]1 (stereo not drawn) | > 100 µM | > 100 µM | > 100 µM | > 100 µM | > 100 µM | > 100 µM | > 100 µM | > 100 µM | 43.5 µM | > 100 | > 100 µM | > 100 | > 100 µM | > 100 µM | > 100 µM | > 100 µM | > 100 µM | > 100 µM | > 100 µM | > 100 µM |
